Experimental data as given in PubChem BioAssay AID651650 (Sanford-Burnham Center for Chemical Genomics, 2012).
Activity calls are given as the source filed them.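 Rule for the calls: active = mean IC50 below 20 µM in each of the two panels, so potent in both; inactive = the rest.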

Target: Neuropilin-1 (Homo sapiens) (UniProt O14786)
Test: blockers of CendR peptide binding to NRP-1 – biochemical, FP and AlphaScreen panel, dose response (AID 651650)
Conditions: NRP-1 b1b2 / RPARPAR peptide binding, FP or AlphaScreen
[1] = AlphaScreen, run 1, individual panel run IC50
[2] = FP, run 1, individual panel run IC50
[3] = FP, run 2, individual panel run IC50

Chain of Neuropilin-1 (Homo sapiens) (O14786 whole entry, looked up): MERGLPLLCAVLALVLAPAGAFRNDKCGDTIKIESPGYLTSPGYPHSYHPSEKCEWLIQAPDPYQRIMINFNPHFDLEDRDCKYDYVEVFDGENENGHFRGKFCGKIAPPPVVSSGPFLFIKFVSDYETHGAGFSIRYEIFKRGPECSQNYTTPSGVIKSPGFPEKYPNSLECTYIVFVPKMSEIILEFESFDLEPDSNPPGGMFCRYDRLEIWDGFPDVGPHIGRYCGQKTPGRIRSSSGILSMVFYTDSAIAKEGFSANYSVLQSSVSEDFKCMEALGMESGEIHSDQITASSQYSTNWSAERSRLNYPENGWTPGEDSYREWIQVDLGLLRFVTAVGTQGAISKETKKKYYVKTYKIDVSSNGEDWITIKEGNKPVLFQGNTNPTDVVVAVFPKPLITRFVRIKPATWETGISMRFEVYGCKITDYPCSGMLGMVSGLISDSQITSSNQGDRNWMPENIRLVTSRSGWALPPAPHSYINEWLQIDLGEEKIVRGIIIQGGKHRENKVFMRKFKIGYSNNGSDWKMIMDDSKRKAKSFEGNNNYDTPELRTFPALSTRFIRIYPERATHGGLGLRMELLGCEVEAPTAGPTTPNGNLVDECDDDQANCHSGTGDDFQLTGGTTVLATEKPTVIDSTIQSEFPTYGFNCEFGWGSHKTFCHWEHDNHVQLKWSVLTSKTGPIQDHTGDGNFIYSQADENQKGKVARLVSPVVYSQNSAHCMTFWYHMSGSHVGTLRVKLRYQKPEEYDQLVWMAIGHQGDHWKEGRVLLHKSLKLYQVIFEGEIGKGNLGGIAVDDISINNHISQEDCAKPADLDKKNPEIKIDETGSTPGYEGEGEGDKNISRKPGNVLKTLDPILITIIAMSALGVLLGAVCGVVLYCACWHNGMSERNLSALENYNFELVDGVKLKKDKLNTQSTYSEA

| Compound | IC50 (AlphaScreen, mean of runs) | IC50 [1] | IC50 (FP, mean of runs) | IC50 [2] | IC50 [3] |
| --- | --- | --- | --- | --- | --- |
| Cc1nn(-c2ccccc2)c(C)c1C(=O)OCC(=O)Nc1ccccc1 | > 100 µM (inactive) | > 100 µM | > 95 µM (inactive) | > 95 µM | > 95 µM |
| CC(C)(C)C(=O)COC(=O)c1cc(-c2ccncc2)nc2ccccc12 | > 100 µM (inactive) | > 100 µM | inactive | > 95 µM | 40.5 µM |
| Cc1ccccc1OCC1Cc2c(nc(N)c(C#N)c2N)O1 (stereo not given) | > 100 µM (inactive) | > 100 µM | > 95 µM (inactive) | > 95 µM | > 95 µM |
| Cc1ccccc1-c1cnc(C(O)c2ccc(F)c(F)c2)[nH]1 (stereo not given) | > 100 µM (inactive) | > 100 µM | > 95 µM (inactive) | > 95 µM | > 95 µM |
| O=C(CCCNC(=O)/C(=C\c1ccc(F)cc1)NC(=O)c1ccccc1)OCc1ccccc1 | > 100 µM (inactive) | > 100 µM | > 95 µM (inactive) | > 95 µM | > 95 µM |
| O=C(Cn1cccc1C(=O)c1ccccc1)NCCC1=CCCCC1 | 7.12 µM | 7.12 µM | > 95 µM (inactive) | > 95 µM | > 95 µM |
| O=c1c2ccccc2nc2n1C(CSc1ccc(F)cc1)CS2 (stereo not given) | 11.5 µM | 11.5 µM | > 95 µM (inactive) | > 95 µM | > 95 µM |
| CCOC(=O)[C@]12CCCC=C1N(CCC1=CCCCC1)C(=O)[C@H](CC(=O)NCC13CC4CC(CC(C4)C1)C3)C2 | > 100 µM (inactive) | > 100 µM | > 95 µM (inactive) | > 95 µM | > 95 µM |
| CSc1nc2ccccc2c(=O)n1C1CCOC(C)(C)C1 (stereo not given) | > 100 µM (inactive) | > 100 µM | > 95 µM (inactive) | > 95 µM | > 95 µM |
| CC(C)(C)C(=O)c1cnc(Nc2ccccc2)s1 | > 100 µM (inactive) | > 100 µM | > 95 µM (inactive) | > 95 µM | > 95 µM |
| CCN(Cc1ccncc1)C(=O)c1cc(COc2ccc(F)cc2F)on1 | > 100 µM (inactive) | > 100 µM | > 95 µM (inactive) | > 95 µM | > 95 µM |
| CCOC(=O)c1cnc(-c2ccccc2)nc1Oc1ccc(OC)cc1 | 10.4 µM | 10.4 µM | 19.9 µM | 17.9 µM | 21.8 µM |
| C=CCNC(=O)c1onc(CSc2ccc(F)c(F)c2)c1C(=O)NCC=C | > 100 µM (inactive) | > 100 µM | > 95 µM (inactive) | > 95 µM | > 95 µM |
| O=C1c2cc([N+](=O)[O-])cc3cc([N+](=O)[O-])cc(c23)C(=O)N1c1ccccn1 | > 100 µM (inactive) | > 100 µM | > 95 µM (inactive) | > 95 µM | > 95 µM |
| CCCCc1ccc(S(=O)(=O)N2CCC3(CC2)OCCO3)cc1 | > 100 µM (inactive) | > 100 µM | > 95 µM (inactive) | > 95 µM | > 95 µM |
| CC(C)Cc1ccc(C(C)C(=O)Nc2ccc(O)cc2)cc1 (stereo not given) | > 100 µM (inactive) | > 100 µM | > 95 µM (inactive) | > 95 µM | > 95 µM |
| CCC(=NCCc1ccccc1)c1c(O)n(C2CCCCC2)c(=O)[nH]c1=O | > 100 µM (inactive) | > 100 µM | > 95 µM (inactive) | > 95 µM | > 95 µM |
| Cc1cccc(-c2noc(CSc3ccccc3)n2)c1 | > 100 µM (inactive) | > 100 µM | > 95 µM (inactive) | > 95 µM | > 95 µM |
| COc1ccc(-c2noc(CN(C(=O)c3ccc4c(c3)OCO4)C(C)C)n2)cc1 | > 100 µM (inactive) | > 100 µM | > 95 µM (inactive) | > 95 µM | > 95 µM |
| Cc1ccccc1Nc1nc(N)nc(COC(=O)CC2CC3CCC2C3)n1 (stereo not given) | > 100 µM (inactive) | > 100 µM | > 95 µM (inactive) | > 95 µM | > 95 µM |
| CC(Oc1ccccc1)C(=O)NC1=NCCS1 (stereo not given) | > 100 µM (inactive) | > 100 µM | > 95 µM (inactive) | > 95 µM | > 95 µM |
| Cc1ccc(C(=O)O)cc1NC(=O)Nc1cccc2ccccc12 | > 100 µM (inactive) | > 100 µM | > 95 µM (inactive) | > 95 µM | > 95 µM |
